Laboratory results reported in PMC4784888, “Activity Based High-Throughput Screening for Novel O-GlcNAc Transferase Substrates Using a Dynamic Peptide Microarray” (PLoS ONE, 2016).
pIC50: −log10 of the molar value.

Legend:
[1] = test system: OGT; conditions: known OGT inhibitor; ref [31]; read-out: reported IC50; cited from earlier work
Text: Its interesting biology motivated us to further focus on the validation of RBL-2 O-GlcNAcylation in the following work. Kinetic signals of the GlcNAcylation were collected to fully understand the O-GlcNAcylation of RBL-2_420–422.

[2] = test system: purified m-OGT; test: Inhibition of RBL-2_410–422 O-GlcNAcylation by known OGT inhibitor on microarray; type: biochemical, human; conditions: 200 μM ST045849, purified m-OGT (0.2 μg/μL), 1 mM UDP-GlcNAc
Protocol: One step OGT purification was performed using His60 Ni Gravity Flow Columns (Clontech) according to the manufacturer’s instructions. Briefly, the nickel column was equilibrated with a buffer containing 50 mM sodium phosphate, 300 sodium chloride, 20 mM imidazole, and pH 7.4, followed by incubation with cell lysate containing His tag OGT for 1h at 4°C. After washing several times using buffer containing 50 mM sodium phosphate, 300 sodium chloride, 40 mM imidazole, and pH 7.4, the recombinant OGT was eluted using elution buffer containing 50 mM sodium phosphate, 300 mM sodium chloride, 300 mM imidazole, and pH 7.4. […]
(§1) Peptide O-GlcNAcylation was assessed using PamChip 4 microarray chips with a PamStation 12 instrument (Pamgene international, The Netherlands). […] O-GlcNAcylation of each peptide was detected by a fluorescent signal which was produced by an FITC conjugated antibody bound to the O-GlcNAc moiety on the peptide.
Image analysis was performed using BioNavigator 6 software (Pamgene international, The Netherlands). Briefly, each image was quantified by automated array grid finding and subsequent quantification of signal and local background for each individual spot. In this work, the signal median-minus-background value was used as the quantitative parameter for the O-GlcNAcylation of the peptide. […]

[3] = test system: purified m-OGT; test: Ala scan of RBL-2_410–422 on peptide microarray; type: biochemical, human; conditions: microarray; 1 mM UDP-GlcNAc, 0.2 μg/μL purified m-OGT
Protocol: One step OGT purification was performed using His60 Ni Gravity Flow Columns (Clontech) according to the manufacturer’s instructions. Briefly, the nickel column was equilibrated with a buffer containing 50 mM sodium phosphate, 300 sodium chloride, 20 mM imidazole, and pH 7.4, followed by incubation with cell lysate containing His tag OGT for 1h at 4°C. After washing several times using buffer containing 50 mM sodium phosphate, 300 sodium chloride, 40 mM imidazole, and pH 7.4, the recombinant OGT was eluted using elution buffer containing 50 mM sodium phosphate, 300 mM sodium chloride, 300 mM imidazole, and pH 7.4. The eluted fraction was concentrated through a 100,000 Da molecular weight cut off Amicon unit by centrifugation 10 min at 5000 RPM at 4°C.
(§2) Peptide O-GlcNAcylation was assessed using PamChip 4 microarray chips with a PamStation 12 instrument (Pamgene international, The Netherlands). The OGT enzyme reaction was prepared essentially as described[26] with minor modifications. Briefly, before addition of the enzyme reaction, the microarray was blocked with blocking buffer (1% BSA in TBS). After 30 cycles (2 cycles/min) blocking, the blocking buffer was aspirated and the microarray was incubated with 40 μL of the enzyme reaction containing OGT (lysate or purified), OGT reaction buffer (50 mM Tris—HCl, pH 7.5;1 mM DTT;12.5 mM MgCl2), a 1:1 pre-incubated mixture of anti-O-GlcNAc and FITC conjugated secondary antibody, and the sugar donor UDP-GlcNAc or water as a control for 480 cycles (2 cycles/min) at 30°C. The microarray was run in parallel by pumping the reaction up and down through the porous membrane at every cycle and a tiff image was obtained at every 20 cycles by a CCD camera inside the PamStation. O-GlcNAcylation of each peptide was detected by a fluorescent signal which was produced by an FITC conjugated antibody bound to the O-GlcNAc moiety on the peptide.
(§3) Image analysis was performed using BioNavigator 6 software (Pamgene international, The Netherlands). Briefly, each image was quantified by automated array grid finding and subsequent quantification of signal and local background for each individual spot. In this work, the signal median-minus-background value was used as the quantitative parameter for the O-GlcNAcylation of the peptide.
Synthesis of all the peptides was achieved by following a standard Fmoc SPPS strategy on a Symphony Multiple Peptide Synthesizer and starting from rink amide resin. The following Fmoc amino acids were used: Fmoc-Cys(Trt)-OH, Fmoc-Gly-OH, Fmoc-Lys(Boc)-OH, Fmoc-Glu(Otbu)-OH, Fmoc-Asn(Trt)-OH, Fmoc-Ser(tBu)-OH, Fmoc-Thr(tBu)-OH, Fmoc-Ala-OH, Fmoc-Pro-OH, Fmoc-Val-OH. Deprotection was performed using 20% piperidine in DMF, and coupling was performed using 1:0.9:2 amino acid/ HBTU/DIPEA in DMF. After completion of the synthesis, the protected peptidyl resins were incubated with a 10 mL mixture of TFA (trifluoroacetic acid): H2O: triisopropylsilane (TIPS): 1, 2-ethanedithiol (EDT) (9:0.5:0.25:0.25, v/v/v/v) and allowed to stir for 2 h at room temperature under a nitrogen atmosphere. The cleaving mixture was filtered and the resin was washed with TFA (2 mL) and DCM (4 mL). The residue was precipitated by treatment of precooled diethyl ether and centrifugation. Two times washing and centrifugation yielded the crude products in a pellet. The precipitated peptides were dissolved in water, frozen, and lyophilized. All products were stored at -20°C. Crude peptide analysis was carried out by LC-MS.
To further confirm this and investigate the role of this and surrounding amino acid residues in our activity based assay, we resynthesized the RBL-2 peptide present on the microarray and performed an Ala scan, thus replacing of all the possible O-GlcNAc sites (Ser and Thr) in RBL-2_420–422 (Fig 4A). To immobilize the peptides on the chip, all the peptides were prepared with an extra CG at the NH2 terminal to allow immobilization on the maleimide-based chip surface. […]

[4] = test system: m-OGT; test: Validation of RBL-2 peptide O-GlcNAcylation on microarray, dependency on UDP-GlcNAc and m-OGT lysate; type: biochemical, human
Protocol: (§4) Plasmids encoding s-OGT, m-OGT, and nc-OGT are generous gifts from John A. Hanover (National Institute of Health, USA). OGT overexpression was carried out as previously described. All the plasmids were transformed into E.coli BL21 (DE3) competent cells to produce a cell lysate containing OGT for use or for further purification. Briefly, inoculated a single colony into 50 ml of LB broth media containing 50 μg/ml ampicillin and cells were grown overnight at 37°C with vigorous shaking. 50 mL of the start culture was added into 1L LB broth media containing 50 μg/mL ampicillin and it was incubated with shaking at 200 rpm at 37°C until A600 reached 0.4–0.6. After the culture was cooled to room temperature, 0.5 mM IPTG was added into the culture to induce protein expression. […] After centrifugation for 10 min at 12000 rpm at 4°C, the supernatant was carefully transferred into a clean tube and was ready for the array assay or for further purification. Protein expression was determined by coomassie blue staining and western blotting using an anti-OGT antibody.
as §1, with “peptide. […]” for “peptide.”

[5] = test system: nc-OGT; test: O-GlcNAcylation on kinase substrate peptide microarray, nc-OGT; type: biochemical, human; conditions: bacterial lysate containing nc-OGT (7 μg/μL), 1 mM UDP-GlcNAc, 50 mM Tris-HCl pH 7.5, 30°C, FITC antibody fluorescence, corrected for signal without UDP-GlcNAc
Protocol: (§5) Plasmids encoding s-OGT, m-OGT, and nc-OGT are generous gifts from John A. Hanover (National Institute of Health, USA). OGT overexpression was carried out as previously described. All the plasmids were transformed into E.coli BL21 (DE3) competent cells to produce a cell lysate containing OGT for use or for further purification. Briefly, inoculated a single colony into 50 ml of LB broth media containing 50 μg/ml ampicillin and cells were grown overnight at 37°C with vigorous shaking. 50 mL of the start culture was added into 1L LB broth media containing 50 μg/mL ampicillin and it was incubated with shaking at 200 rpm at 37°C until A600 reached 0.4–0.6. After the culture was cooled to room temperature, 0.5 mM IPTG was added into the culture to induce protein expression. After 16 hours, the cells were collected by centrifugation for 10 min at 4000 RPM at 4°C. The pellets were lysed in lysis buffer containing 20 mM Tris-HCl, pH 7.5, 1 mg/mL lysome, 0.1% triton x-100 and complete mini EDTA-free protease inhibitor cocktail on ice for 10 min and the lysate was sonicated until the DNA was completely sheared. After centrifugation for 10 min at 12000 rpm at 4°C, the supernatant was carefully transferred into a clean tube and was ready for the array assay or for further purification. Protein expression was determined by coomassie blue staining and western blotting using an anti-OGT antibody.
as §2, §3
(§6) Dynamic peptide microarray (PamChip) technology has been successfully and widely used for kinase activities profiling in the last decade. In the present work, we describe, for the first time, the utility of this peptide microarray format for the identification of human OGT activity. Due to the fact that O-GlcNAcylation and phosphorylation may occur at the same or proximal amino acids on the same protein [9], a peptide microarray of 144 peptides derived from different kinase substrates (S1 Appendix) was selected for an initial test. […] O-GlcNAcylation of peptides in each individual spot was detected by a fluorescent signal produced by the FITC labelled antibody recognizing the O-GlcNAcylated amino acids of converted peptides. Kinetic activity was measured through scanning the signal at regular intervals.
(§7) Fig 2 Identification of human OGT substrates from a kinase substrate and nuclear hormone receptor interaction peptide microarray. […]

[6] = test system: s-OGT; test: O-GlcNAcylation on kinase substrate peptide microarray, s-OGT; type: biochemical, human; conditions: bacterial lysate containing s-OGT (7 μg/μL), 1 mM UDP-GlcNAc, 50 mM Tris-HCl pH 7.5, 30°C, FITC antibody fluorescence, corrected for signal without UDP-GlcNAc
Protocol: as §5, §2, §3, §6, §7

[7] = test system: m-OGT; test: O-GlcNAcylation on kinase substrate peptide microarray, m-OGT; type: biochemical, human; conditions: bacterial lysate containing m-OGT (7 μg/μL), 1 mM UDP-GlcNAc, 50 mM Tris-HCl pH 7.5, 30°C, FITC antibody fluorescence, corrected for signal without UDP-GlcNAc
Protocol: as §5, §2, §3, §6, §7

[8] = test system: OGT (s-OGT, m-OGT, nc-OGT); test: O-GlcNAcylation on kinase substrate peptide microarray, three isoforms taken together; type: biochemical, human
Protocol: as §4, with “expression. After 16 hours, the cells were collected by centrifugation for 10 min at 4000 RPM at 4°C.” for “expression.”
as §1, §3
Dynamic peptide microarray (PamChip) technology has been successfully and widely used for kinase activities profiling in the last decade. […] Kinetic activity was measured through scanning the signal at regular intervals. […]

Rank as hit in screening assay ([8]; peptide microarray screening) | Compound | pIC50 [1] | inhibition of RBL-2 peptide O-GlcNAcylation [2] | OGT activity of wild type compared with C415A, microarray [3] | O-GlcNAcylation versus amount of m-OGT lysate ([4]; bacterial lysate containing m-OGT 0, 1.7, 3.5, 7 μg/μL, 1 mM UDP-GlcNAc) | O-GlcNAcylation rate versus UDP-GlcNAc concentration ([4]; bacterial lysate containing m-OGT (7 μg/μL), UDP-GlcNAc 0–10 mM) | OGT isoforms activity, nc [5] | OGT isoforms activity, s [6] | OGT isoforms activity, m [7] | O-GlcNAcylation by all three isoforms OGT ([8]; kinase substrate microarray, bacterial lysates s-, m-, nc-OGT, 1 mM UDP-GlcNAc)
– | O=C(O)C1CC(=O)N(CCC23CC4CC(CC(C4)C2)C3)C(=Nc2ccc(Cl)cc2)S1 (stereo not shown) [ST045849, 3-(2-adamantanylethyl)-2-[(4-chlorophenyl)azamethylene]-4-oxo-1,3-thiazaperhyd roine-6-carboxylic acid] | ~4.30 | 80% | – | – | – | – | – | – | –
best hit in our screening assay | KENSPCVTPVSTA [RBL-2_410_422, kinase substrate microarray peptide …] | – | – | dramatic decrease of activity comparing with C415A peptide | increased with increasing amounts of bacterial lysate containing recombinant m-OGT | increased upon the addition of increasing concentrations of the donor UDP-GlcNAc | P (Signal greater than 5% of the highest signal was defined as positive (P)) | P (Signal greater than 5% of the highest signal was defined as positive (P)) | P (Signal greater than 5% of the highest signal was defined as positive (P)) | –
– | LSAFRRTSLAGGG [MYPC3_268_280, kinase substrate microarray peptide …] | – | – | – | – | – | P (Signal greater than 5% of the highest signal was defined as positive (P)) | P (Signal greater than 5% of the highest signal was defined as positive (P)) | P (Signal greater than 5% of the highest signal was defined as positive (P)) | significantly O-GlcNAcylated by all three isoforms OGT
